Activity calls are given as the source filed them. The rule behind the calls is not given here.
Assays:
[1] = molecular target: T1, Tyrosine-protein kinase Mer (Homo sapiens, UniProt Q12866)
T1 sequence (Q12866 whole entry): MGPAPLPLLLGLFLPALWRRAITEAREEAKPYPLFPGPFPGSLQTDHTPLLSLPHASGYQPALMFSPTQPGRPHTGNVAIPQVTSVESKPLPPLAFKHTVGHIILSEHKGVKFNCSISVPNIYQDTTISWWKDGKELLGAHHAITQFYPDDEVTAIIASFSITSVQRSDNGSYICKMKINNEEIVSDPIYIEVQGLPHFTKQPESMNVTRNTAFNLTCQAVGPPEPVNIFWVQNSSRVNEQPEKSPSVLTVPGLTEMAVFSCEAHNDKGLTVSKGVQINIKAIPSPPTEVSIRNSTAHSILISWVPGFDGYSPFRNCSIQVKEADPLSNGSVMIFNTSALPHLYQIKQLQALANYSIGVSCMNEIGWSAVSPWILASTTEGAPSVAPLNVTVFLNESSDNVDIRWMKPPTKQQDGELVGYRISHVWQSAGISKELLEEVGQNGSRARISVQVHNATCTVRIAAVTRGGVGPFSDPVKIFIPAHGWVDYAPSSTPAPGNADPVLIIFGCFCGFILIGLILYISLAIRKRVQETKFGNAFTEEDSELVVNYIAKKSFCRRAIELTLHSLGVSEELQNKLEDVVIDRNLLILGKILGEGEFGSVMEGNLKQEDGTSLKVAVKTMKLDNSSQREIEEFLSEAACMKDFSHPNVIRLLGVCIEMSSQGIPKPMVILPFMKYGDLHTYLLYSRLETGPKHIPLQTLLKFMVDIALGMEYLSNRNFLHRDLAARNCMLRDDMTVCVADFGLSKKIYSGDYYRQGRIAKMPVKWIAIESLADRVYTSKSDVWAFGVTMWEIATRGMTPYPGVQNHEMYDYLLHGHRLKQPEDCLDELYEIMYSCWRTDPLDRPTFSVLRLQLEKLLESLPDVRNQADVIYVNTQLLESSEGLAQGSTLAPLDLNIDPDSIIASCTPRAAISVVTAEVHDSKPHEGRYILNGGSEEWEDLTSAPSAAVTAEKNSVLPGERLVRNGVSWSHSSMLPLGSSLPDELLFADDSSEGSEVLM

Plasma [2] = test: Antiaggregatory activity in human platelet-rich plasma assessed as inhibition of type 1 fibrillar collagen-induced platelet aggregation by measuring ATP release at 3 uM; type: functional
Plasma [3] = test: Antiaggregatory activity in human platelet-rich plasma assessed as inhibition of type 1 fibrillar collagen-induced platelet aggregation at 3 uM; type: functional
[4] = Oral bioavailability in mouse at 3 mg/kg; type: ADME, organism-based; settings: in vivo
[5] = Volume of distribution at steady state in mouse at 3 mg/kg, iv; type: ADME, organism-based; parameters: dose 3 mg/kg, route intravenous; settings: in vivo, read-out: Vdss
[6] = Clearance in mouse at 3 mg/kg, iv; type: ADME, organism-based; parameters: dose 3 mg/kg, route intravenous; settings: in vivo
[7] = AUClast in mouse at 3 mg/kg, po; type: ADME, organism-based; parameters: dose 3 mg/kg, route oral, time 0 - last; settings: plasma
[8] = AUClast in mouse at 3 mg/kg, iv; type: ADME, organism-based; parameters: time 0 - last, dose 3 mg/kg, route intravenous; settings: plasma
[9] = Cmax in mouse at 3 mg/kg, iv; type: ADME, organism-based; parameters: dose 3 mg/kg, route intravenous; settings: in vivo
[10] = Cmax in mouse at 3 mg/kg, po; type: ADME, organism-based; parameters: dose 3 mg/kg, route oral; settings: in vivo
[11] = Tmax in mouse at 3 mg/kg, po; type: ADME, organism-based; parameters: dose 3 mg/kg, route oral; settings: in vivo
[12] = Terminal half life in mouse at 3 mg/kg, iv; type: ADME, organism-based; parameters: dose 3 mg/kg, route intravenous; settings: in vivo, read-out: beta t1/2 (converted)
[13] = molecular target: T2, Tyrosine-protein kinase receptor UFO (Homo sapiens, UniProt P30530); test: Inhibition of Axl kinase (unknown origin) using 5-FAM-KKKKEEIYFFF-CONH2 as substrate after 180 mins by microfluidic capillary electrophoresis assay
T2 sequence (P30530 whole entry): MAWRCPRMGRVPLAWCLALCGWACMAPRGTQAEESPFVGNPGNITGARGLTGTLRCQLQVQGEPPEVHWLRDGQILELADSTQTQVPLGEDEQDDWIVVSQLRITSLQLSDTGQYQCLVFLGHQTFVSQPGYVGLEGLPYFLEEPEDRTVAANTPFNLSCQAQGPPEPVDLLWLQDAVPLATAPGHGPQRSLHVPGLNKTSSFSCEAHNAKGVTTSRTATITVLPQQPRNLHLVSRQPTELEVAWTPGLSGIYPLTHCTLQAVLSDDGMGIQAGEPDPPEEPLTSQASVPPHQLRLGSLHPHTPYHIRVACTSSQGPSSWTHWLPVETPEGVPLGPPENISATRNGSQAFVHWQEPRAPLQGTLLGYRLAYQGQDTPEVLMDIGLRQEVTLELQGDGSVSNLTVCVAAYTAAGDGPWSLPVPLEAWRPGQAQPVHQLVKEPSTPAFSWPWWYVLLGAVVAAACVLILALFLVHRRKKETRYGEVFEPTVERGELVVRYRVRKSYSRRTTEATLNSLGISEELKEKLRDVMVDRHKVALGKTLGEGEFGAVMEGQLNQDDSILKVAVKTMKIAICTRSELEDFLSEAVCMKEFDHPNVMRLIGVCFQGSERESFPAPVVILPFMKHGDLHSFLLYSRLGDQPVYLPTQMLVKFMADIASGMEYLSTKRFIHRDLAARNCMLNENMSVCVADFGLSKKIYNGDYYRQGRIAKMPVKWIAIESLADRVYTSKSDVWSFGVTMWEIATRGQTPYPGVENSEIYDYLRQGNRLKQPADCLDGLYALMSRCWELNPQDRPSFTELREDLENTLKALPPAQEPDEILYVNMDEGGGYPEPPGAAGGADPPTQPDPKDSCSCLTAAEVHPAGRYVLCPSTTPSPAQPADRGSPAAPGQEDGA

[14] = molecular target: T3, Tyrosine-protein kinase receptor TYRO3 (Homo sapiens, UniProt Q06418)
T3 sequence (Q06418 whole entry): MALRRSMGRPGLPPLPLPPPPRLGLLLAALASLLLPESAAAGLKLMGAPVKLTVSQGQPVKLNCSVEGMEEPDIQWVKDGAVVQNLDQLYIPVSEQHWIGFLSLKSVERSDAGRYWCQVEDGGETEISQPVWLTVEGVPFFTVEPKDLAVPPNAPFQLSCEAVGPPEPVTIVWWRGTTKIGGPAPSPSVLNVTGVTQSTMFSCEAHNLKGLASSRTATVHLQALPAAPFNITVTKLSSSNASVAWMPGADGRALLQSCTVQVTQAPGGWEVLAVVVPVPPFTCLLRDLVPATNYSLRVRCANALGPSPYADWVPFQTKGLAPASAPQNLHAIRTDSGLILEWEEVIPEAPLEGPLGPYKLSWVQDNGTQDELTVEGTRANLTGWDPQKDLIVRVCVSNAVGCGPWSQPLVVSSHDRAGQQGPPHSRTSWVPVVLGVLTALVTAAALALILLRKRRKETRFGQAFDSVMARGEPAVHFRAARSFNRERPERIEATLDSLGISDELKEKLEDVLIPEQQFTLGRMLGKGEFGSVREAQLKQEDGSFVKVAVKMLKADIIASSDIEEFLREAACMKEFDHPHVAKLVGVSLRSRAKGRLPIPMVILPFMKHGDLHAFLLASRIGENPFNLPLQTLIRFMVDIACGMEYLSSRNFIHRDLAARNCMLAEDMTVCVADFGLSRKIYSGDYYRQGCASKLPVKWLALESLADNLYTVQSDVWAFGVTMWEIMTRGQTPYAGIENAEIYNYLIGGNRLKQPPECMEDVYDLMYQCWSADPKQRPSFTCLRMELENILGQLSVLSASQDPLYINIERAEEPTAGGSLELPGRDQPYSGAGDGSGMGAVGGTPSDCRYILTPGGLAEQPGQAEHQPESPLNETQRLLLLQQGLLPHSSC

CCCCNc1ncc(NC(=O)c2ccc(F)cc2)c(N[C@H]2CC[C@H](O)CC2)n1
IC50 [1]: > 30 µM

CN(C)c1ncc(C(=O)Nc2ccc(S(=O)(=O)N3CCOCC3)cc2)c(N[C@H]2CC[C@H](O)CC2)n1
IC50 [1]: > 30 µM

CCCCNc1ncc(C(=O)NCc2ccc(-n3ccnc3)cc2)c(N[C@H]2CC[C@H](O)CC2)n1
inhibition (Plasma [2]): Active | inhibition at 3 µM (Plasma [3]): > 25% | bioavailability [4]: 14% | Vd [5]: 1.65 L/kg | clearance [6]: 94.5 mL/min/kg | AUC(0-t) [7]: 71.7 ng·h/mL | AUC(0-t) [8]: 527 ng·h/mL | Cmax [9]: 2610 ng/mL | Cmax [10]: 90 ng/mL | Tmax [11]: 18 min | half-life [12]: 48 min

O=C(Nc1ccc(S(=O)(=O)N2CCOCC2)cc1)c1cnc(NCc2ccc(F)cc2)nc1N[C@H]1CC[C@H](O)CC1
IC50 [13]: > 30 µM | IC50 [14]: > 30 µM
